Measurements from paper PMC8466300, “Investigating the Central Nervous System Disposition of Actinomycin D: Implementation and Evaluation of Cerebral Microdialysis and Brain Tissue Measurements Supported by UPLC-MS/MS Quantification” (Pharmaceutics, 2021).
Where two headings read alike, the source gives them in different places. *1 amine or outer side, *2 acyl side, *3 side chain or, on linkers, in order; H or OH if unused. Where a SMILES comes first, the peptide text is derived from it. Bridges are numbered along the chain shown (N, C = ends). Roman numbers before positions name the chains, in order. [ ]: non-standard residue; d: D form. Actinocin(9to1) = Cc1c2oc3c(C)ccc(C(=O)[*:1])c3nc-2c(C(=O)[*:2])c(N)c1=O; NMeV = CN[C@H](C(=O)O)C(C)C; Sar = CNCC(=O)O

Key:
P-gp/ABCB1 = P-gp/ABCB1 (Homo sapiens, UniProt P08183); conditions: 0.01 µM, 10-120 min, 37 °C, 1 million cells, duplicate, cell homogenate UPLC-MS/MS; L-MDR1 vs LLC-PK1
P-gp/ABCB1, sequence (P08183 whole entry): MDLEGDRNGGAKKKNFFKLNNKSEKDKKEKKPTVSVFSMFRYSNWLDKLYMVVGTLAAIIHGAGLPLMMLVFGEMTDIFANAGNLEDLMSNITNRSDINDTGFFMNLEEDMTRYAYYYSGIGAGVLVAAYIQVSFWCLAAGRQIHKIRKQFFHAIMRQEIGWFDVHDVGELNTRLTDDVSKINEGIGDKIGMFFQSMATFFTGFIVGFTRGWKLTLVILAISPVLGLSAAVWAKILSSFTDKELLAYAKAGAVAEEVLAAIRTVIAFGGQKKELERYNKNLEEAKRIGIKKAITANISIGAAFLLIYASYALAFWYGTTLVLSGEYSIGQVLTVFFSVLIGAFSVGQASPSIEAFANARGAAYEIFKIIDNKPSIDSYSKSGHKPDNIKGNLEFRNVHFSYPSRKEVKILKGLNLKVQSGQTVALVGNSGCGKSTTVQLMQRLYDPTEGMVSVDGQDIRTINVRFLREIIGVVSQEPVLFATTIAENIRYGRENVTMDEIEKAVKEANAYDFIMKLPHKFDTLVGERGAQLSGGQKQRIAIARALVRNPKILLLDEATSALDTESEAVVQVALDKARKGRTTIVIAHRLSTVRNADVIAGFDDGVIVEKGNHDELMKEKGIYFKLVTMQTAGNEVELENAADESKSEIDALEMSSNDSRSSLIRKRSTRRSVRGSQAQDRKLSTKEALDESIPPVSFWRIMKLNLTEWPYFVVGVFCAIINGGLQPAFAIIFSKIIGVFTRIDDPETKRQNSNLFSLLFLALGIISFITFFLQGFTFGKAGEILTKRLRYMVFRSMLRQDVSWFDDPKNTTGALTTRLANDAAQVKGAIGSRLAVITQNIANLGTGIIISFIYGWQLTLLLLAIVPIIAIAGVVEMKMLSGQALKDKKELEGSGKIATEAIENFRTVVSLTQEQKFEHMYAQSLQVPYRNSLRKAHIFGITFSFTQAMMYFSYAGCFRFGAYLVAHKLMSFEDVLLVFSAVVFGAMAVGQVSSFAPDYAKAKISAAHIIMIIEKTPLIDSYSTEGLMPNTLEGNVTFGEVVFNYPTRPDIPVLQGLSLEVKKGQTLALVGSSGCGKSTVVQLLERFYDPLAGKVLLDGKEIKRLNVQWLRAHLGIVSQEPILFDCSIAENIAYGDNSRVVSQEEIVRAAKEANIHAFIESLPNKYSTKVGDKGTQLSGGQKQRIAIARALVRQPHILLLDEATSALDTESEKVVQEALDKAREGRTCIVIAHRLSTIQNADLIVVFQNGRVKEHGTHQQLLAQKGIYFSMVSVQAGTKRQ
Protocol: (§1) To confirm the P-gp substrate characteristics of actinomycin D, we conducted growth inhibition and uptake assays in a cell line over-expressing human P-gp/ABCB1 (L-MDR1 cells) in comparison to the respective parental cell line (LLC-PK1). L-MDR1 cells were kindly provided by A. H. Schinkel (The Netherlands Cancer Institute, Division of Experimental Therapy, Amsterdam, The Netherlands). The cells were cultured under standard cell culture conditions with medium M199 supplemented with 10% FCS, 2 mM glutamine, 100 U/mL penicillin, and 100 µg/mL streptomycin sulfate. The culture medium for L-MDR1 was supplemented with 0.64 µM vincristine to maintain P-gp/ABCB1 expression. One day before using the cells in the assays, both cell lines were fed with vincristine-free culture medium.

[1] = 7 months at −20 °C; cited from earlier work
[2] = Stability in microdialysis buffer and in solution (assay validation); assay type: physicochemical; conditions: for 6-month stability in solution at 4°C, accuracy: ACN/H2O (1/1) + 0.1% FA solutions, 6 months; for 6-month stability in solution at 4°C, accuracy / 2 days buffer stability at RT, accuracy: N = 3; for 2 days buffer stability at RT, accuracy: microdialysate buffer (1% BSA Ringer)
Protocol: Plasma calibration samples were prepared by spiking blank plasma (75 µL) with 25 µL of the calibration sub-solution, yielding plasma concentrations of 0.05, 0.2, 0.5, 1, 3, 10, 30, and 100 ng/mL. Plasma QC samples were prepared accordingly at concentrations of 0.05, 0.15, 3, and 60 ng/mL. Brain tissue homogenate calibration samples were prepared by spiking brain tissue homogenate (75 µL), which was prepared at 100 mg tissue per mL of 5% aqueous ACN containing 0.5% Triton X, with 25 µL of the calibration sub-solution, yielding concentrations corresponding to 0.5, 2, 5, 10, 30, 100, 300, and 1000 ng/g. Brain tissue homogenate QC samples were prepared accordingly, at corresponding concentrations of 0.5, 1.5, 30, and 600 ng/g. Solutions were kept at 4 °C for up to 6 months.

[3] = two patients, three hours after intravenous administration; cited from earlier work
Description: However, in this earlier study, actinomycin D was quantified in cerebrospinal fluid three hours after intravenous administration, i.e., in a protein-poor compartment that is also separated from blood and tissue by active barriers. […] In a more recent study in m ...

[4] = N = 3, UPLC-MS/MS; for Freeze-and-thaw stability, accuracy: plasma, three freeze-and-thaw cycles separated by at least 24 h
Protocol: Accuracy was calculated as the percentage of the ratio of the mean determined concentration in individual analytical runs and the nominal value. Precision was expressed in percent and is defined as the coefficient of variation of the measured sample concentrations at each QC level. Three validation runs were analyzed, each containing eight calibration samples in duplicate determination and four QC samples at LLOQ, and low, mid, and high QC concentration in six replicates. Selectivity was evaluated using blank plasma samples from six naïve mice and brain tissue homogenates from two mice. Extraction recovery was calculated from peak areas after extraction from the QC samples divided by the respective peak areas obtained from blank plasma spiked after extraction. Matrix effects were evaluated by comparison of the peak areas of the blank plasma samples spiked after extraction with the respective peak areas of matrix-free UPLC solvent samples spiked with the identical amount. Stability of the analyte was tested in three freeze-and-thaw cycles separated by at least 24 h, in plasma samples stored for 1 month at −25 °C, in microdialysate stored at room temperature for 2 d, and in extracts left in the autosampler for 24 h. Additionally, an incurred sample reanalysis was performed for all plasma samples with sufficient volume for reanalysis.

[5] = Non-specific binding to microdialysis equipment; assay type: physicochemical; conditions: in vitro; polypropylene sampling tubes; reduced by BSA ≥1% in Ringer solution
Protocol: In preparation of the cerebral microdialysis, we first investigated the adsorption and recovery characteristics of the microdialysis probes, tubing, and pump system, to test the validity of the microdialysis determinations. […] In order to reduce nonspecific binding, BSA supplement of the microdialysis buffer was tested in different concentrations, ranging from 0.1 to 2%. […] Therefore, 1% BSA in Ringer solution was used for all microdialysis experiments.

LLC-PK1 cells = conditions: read-out: IC50 (proliferation); LLC-PK1 parental cells; four experiments, each concentration in octuplet; ten concentrations 0.0005–10 µM; sigmoid Emax model
Protocol: as §1
(§2) The assays were performed in quadruplicate, as described previously, using ten concentrations of actinomycin D from 0.0005–10 µM in octuplets.
(§3) Calibration curves were determined with 1/x^2 weighted linear regression using peak area ratios of the analyte to IS. This calculation was performed using the software TargetLynx V4.2 (Waters, Milford, MA, USA). Plasma pharmacokinetics were determined with the software Kinetica (v 5.0; Thermo Fisher Scientific, Waltham, MA, USA). Standard calculations were performed using Microsoft Office Excel 2010 ([…]). Concentration–response curves and IC50 values were calculated by GraphPad Prism version 9.0.0 (GraphPad Software Inc., La Jolla, CA, USA) according to a sigmoid Emax model.

[6] = Protocol: as §1, §2, §3
[7] = system: L-MDR1 cells (over-expressing human P-gp/ABCB1); conditions: ratio of IC50 in P-gp over-expressing versus parental cells
Protocol: as §1, §2, §3

[8] = rapid equilibrium dialysis, 12 h, 37 °C
Protocol: (§4) To determine the previously unknown unbound fraction of actinomycin D in plasma and brain tissue homogenate, we performed rapid equilibrium dialysis (RED) in duplicate. For this, samples were spiked with drug solutions that were prepared in plasma or brain tissue homogenate to obtain minimally diluted samples (30 ng/mL for plasma and 30 ng/g for brain tissue). The free actinomycin D tissue fraction was also quantified in a pooled sample of brain tissue homogenates from the three mice euthanized 2 h after dosing. Determinations were performed on a RED apparatus (ThermoFisher Scientific, Waltham, MA, USA) according to the manufacturer´s instructions under gentle agitation for 12 h at 37 °C.

in vitro = conditions: mouse, plasma
Protocol: as §4

P-gp = conditions: cited from earlier work

## Cc1c2oc3c(C)ccc(C(=O)N[C@@H]4C(=O)N[C@H](C(C)C)C(=O)N5CCC[C@H]5C(=O)N(C)CC(=O)N(C)[C@@H](C(C)C)C(=O)O[C@@H]4C)c3nc-2c(C(=O)N[C@@H]2C(=O)N[C@H](C(C)C)C(=O)N3CCC[C@H]3C(=O)N(C)CC(=O)N(C)[C@@H](C(C)C)C(=O)O[C@@H]2C)c(N)c1=O [actinomycin D, Actinomycin D] (I: T[dV]P[Sar][NMeV] / II: T[dV]P[Sar][NMeV]; ester I:1-I:C, II:1-II:C; linker I:N-II:N via Actinocin(9to1))
P-gp/ABCB1
  accumulation in P-gp over-expressing cell line versus parental cell line: lower accumulation
[1]
  long-term stability in human plasma: has already been demonstrated
[2]; 1% BSA in Ringer solution, 2 d, room temperature
  stability in the microdialysis buffer: stable
[2]; High QC 60.0 ng/mL
  6-month stability in solution at 4°C, accuracy: 87.2%
[2]; Low QC 0.150 ng/mL
  6-month stability in solution at 4°C, accuracy: 88.3%
[2]; Medium QC 3.00 ng/mL
  6-month stability in solution at 4°C, accuracy: 86.4%
[2]; room temperature, High QC 60.0 ng/mL
  2 days buffer stability at RT, accuracy: 104.7%
[2]; room temperature, Low QC 0.150 ng/mL
  2 days buffer stability at RT, accuracy: 108.7%
[2]; room temperature, Medium QC 3.00 ng/mL
  2 days buffer stability at RT, accuracy: 113.5%
[2]; stored solutions kept at 4 °C
  time stable in solution: at least 6 months
[3]
  cerebrospinal fluid concentration relative to corresponding plasma concentration: approximately 10%
[4]; High QC 60.0 ng/mL
  1-month plasma stability at -25 °C, accuracy: 100.7%
  Freeze-and-thaw stability, accuracy: 87.6%
[4]; Low QC 0.150 ng/mL
  1-month plasma stability at -25 °C, accuracy: 95.6%
  Freeze-and-thaw stability, accuracy: 93.6%
[4]; Medium QC 3.00 ng/mL
  1-month plasma stability at -25 °C, accuracy: 98.3%
  Freeze-and-thaw stability, accuracy: 92.0%
[5]
  non-specific binding to microdialysis equipment: substantially adhered
LLC-PK1 cells
  IC50: 21 ± 6 nM
[6]
  IC50: 2400 ± 600 nM
[7]
  difference of IC50 L-MDR1 versus LLC-PK1: > 100 fold
[8]; minimally diluted homogenate spiked at 30 ng/g, duplicate, UPLC-MS/MS
  free fraction in spiked brain tissue homogenate: 3.4%
[8]; pooled homogenates of three mice 2 h after 0.5 mg/kg i.v., estimated from response values below LLOQ
  free fraction in brain tissue homogenate of dosed mice: < 3%
In vitro
  fraction unbound at 12 h, 30 ng/mL: 0.231
P-gp
  brain exposure in P-gp knockout mice relative to wildtype mice: 2.3 fold
